{"source": "patent US9561220B2", "about": "“Group of alkaloids, the novel autophagic enhancers for treatment of cancers and neurodegenerative conditions thereof” (Macau University of Science and Technology, priority 2014, dated 2017)", "key": {"[1]": {"test_system": "a panel of cancer and normal cells", "assay": "GFP-LC3 puncta formation in a panel of cancer and normal cells", "format": "cell-based, human", "conditions": "fluorescent microscopy (FIG. 2c)", "protocol": "(§1) GFP-LC3 puncta formation was quantified as previously described. In brief, GFP-LC3 transfected cells grown on coverslips in a 6-well plate were treated with or without 20 μM of […], 10 μM of isoliensinine, dauricine, cepharanthine, hernandezine or thalidezine for 4 hours, the cells were then fixed in 4% paraformaldehyde for 20 minutes at room temperature and then rinsed with PBS. Slides were mounted with FluorSaveTM mounting media (Calbiochem, San Diego, Calif.) and examined by fluorescence microscopy. The number of GFP-positive cells with GFP-LC3 puncta formation was examined under the Nikon ECLIPSE 80i microscope. Representative images were captured with CCD digital camera Spot RT3TM (Diagnostic Instruments, Inc., Melville, N.Y.). To quantify for autophagy, the percentage of cells with punctate GFP-LC3 fluorescence was calculated by counting the number of the cells with punctate GFP-LC3 fluorescence in GFP-positive cells. A minimum of 150 cells from 3 randomly selected fields was scored."}, "HeLa cancer cells": {"test_system": "HeLa cancer cells", "assay": "Quantification of autophagy GFP-LC3 puncta in HeLa cells", "format": "cell-based, human", "conditions": "20 μM liensinine or 10 μM others, 4 hours, compared to DMSO control (FIG. 2a)", "protocol": "as §1"}, "[2]": {"test_system": "autophagy deficient cells (Atg7−/− or Atg7-ko) MEFs", "assay": "Annexin V / propidium iodide flow cytometry in Atg7 wild-type and deficient MEFs", "format": "cell-based, mouse", "protocol": "Cell viability was measured using an annexin V staining kit (BD Biosciences, San Jose, Calif., USA). Briefly, Atg7 wild-type (Atg7+/+ or Atg7-wt) and Atg7 deficient (Atg7−/− or Atg7-ko) mouse embryonic fibroblasts (MEFs) were treated with the selected alkaloids for 24 h. Cells were then harvested and analysed by multiparametric flow cytometry using FITC-Annexin V and Propidium iodide staining (BD Biosciences, San Jose, Calif., USA) according to the manufacturer's instructions. Flow cytometry was then carried out using a FACSCalibur flow cytometer (BD Biosciences, San Jose, Calif., USA). Data acquisition and analysis was performed with CellQuest (BD Biosciences, San Jose, Calif., USA). Data were obtained from three independent experiments."}, "[3]": {"test_system": "HeLa cells expressing GFP-LC3", "assay": "GFP-LC3 puncta quantification in the presence of autophagic inhibitor 3-MA", "format": "cell-based, human", "conditions": "20 μM liensinine or 10 μM others, 3-MA 5 mM, 4 hours (FIG. 3)", "protocol": "GFP-LC3 puncta formation was quantified as previously described. In brief, HeLa cells expressing GFP-LC3 were treated with 20 μM of […], or 10 μM of isoliensinine, dauricine, cepharanthine, hernandezine or thalidezine in the presence of autophagic inhibitor, 3-methyl adenine (3-MA, 5 mM), for 4 hours. The cells were then fixed in 4% paraformaldehyde for 20 minutes at room temperature and then rinsed with PBS. Slides were mounted with FluorSaveTM mounting media (Calbiochem) and examined by fluorescence microscopy. To quantify for autophagy, the percentage of cells with punctate GFP-LC3 fluorescence was calculated by counting the number of the cells with punctate GFP-LC3 fluorescence in GFP-positive cells. A minimum of 150 cells from 3 randomly selected fields were scored."}, "[4]": {"test_system": "EGFP-tagged mutant huntingtin (HDQ55, HDQ74)", "assay": "Removal of mutant huntingtin by immunoblotting against EGFP", "format": "cell-based", "conditions": "PC 12 cells, 5-10 μM, 24 h, immunoblotting against EGFP antibody (FIG. 8b)", "protocol": "(§2) PC 12 cells were transfected transiently with EGFP-HDQ55/74 plasmids for 24 h using Lipofectamine Plus LTX reagent (Invitrogen) according to the manufacturer's protocol. The transfected cells were then treated with […], isoliensinine, dauricine, cepharanthine, hernandezine and thalidezine for 24 h. The removal of mutant huntingtin, ([…]74) was then quantitated by immunoblotting with antibody against EGFP or by immunocytochemistry under fluorescence microscopy."}, "[5]": {"test_system": "mutant huntingtin aggregate (HDQ55)", "assay": "Mutant huntingtin aggregate by fluorescence imaging", "format": "cell-based", "conditions": "PC 12 cells, fluorescence imaging (FIG. 8c)", "protocol": "as §2"}, "[6]": {"test_system": "Atg7-knockout (Atg7-ko or Atg7−/−) mouse embryonic fibroblasts", "assay": "GFP-LC3 puncta in Atg7 deficient MEFs", "format": "cell-based", "conditions": "20 μM liensinine or 10 μM others, 24 h (FIGS. 4a to 4c)", "protocol": "GFP-LC3 puncta formation was quantified as previously described. In brief, both Atg7 wild-type (Atg7-wt or Atg7+/+) and deficient (Atg7-/-) mouse embryonic fibroblasts (MEFs) were transfected with GFP-LC3 plasmid and then grown on coverslips in a 6-well plate. The cells were then treated with 20 μM of […], 10 μM of isoliensinine, 10 μM of dauricine, 10 μM of cepharanthine, hernandezine or 10 μM of thalidezine. for 24 h. The cells were then fixed in 4% paraformaldehyde for 20 minutes at room temperature and then rinsed with PBS. Slides were mounted with FluorSaveTM mounting media (Calbiochem, San Diego, Calif.) and examined by fluorescence microscopy. The number of GFP-positive cells with GFP-LC3 puncta formation was examined under the Nikon ECLIPSE 80i microscope. Representative images were captured with CCD digital camera Spot RT3TM (Diagnostic Instruments, Inc., Melville, N.Y.). To quantify for autophagy, the percentage of cells with punctate GFP-LC3 fluorescence was calculated by counting the number of the cells with punctate GFP-LC3 fluorescence in GFP-positive cells. A minimum of 150 cells from 3 randomly selected fields were scored."}, "p70S6K": {"test_system": "p70S6K", "assay": "Detection of mTOR signaling marker proteins: p70S6K phosphorylation (Western blot)", "format": "cell-based, human", "conditions": "HeLa cells, 20 μM liensinine or 10 μM others (FIG. 5a)", "protocol": "HeLa cells treated with 20 μM of […], 10 μM of isoliensinine, 10 μM of dauricine, 10 μM of cepharanthine, 10 μM of hernandezine and 10 μM of thalidezine were harvested and lysed in RIPA buffer (Cell Signaling). The cell lysates were then resolved by SDS-PAGE. After electrophoresis, the proteins from SDS-PAGE were transferred to nitrocellulose membrane which was then blocked with 5% non-fat dried milk for 60 minutes. The membrane was then incubated with P-p70S6K, p70S6K, P-AMPK, AMPK and actin primary antibodies (1:1000) in TBST overnight at 4° C. respectively. After that, the membrane was further incubated with HRP-conjugated secondary antibodies for 60 minutes. Finally, protein bands were visualized by using the ECL Western Blotting Detection Reagents (Invitrogen)."}, "LC3-II": {"test_system": "LC3-II", "assay": "Detection of autophagic marker protein LC3 conversion (Western blot)", "format": "cell-based, human", "conditions": "HeLa cells, Western blot (FIG. 2b)", "protocol": "After treatments with […], isoliensinine, dauricine, cepharanthine, hernandezine and thalidezine, cells were harvested and lysed in RIPA buffer (Cell Signaling Technologies Inc., Beverly, Mass.). The cell lysates were then resolved by SDS-PAGE. After electrophoresis, the proteins from SDS-PAGE were transferred to nitrocellulose membrane which was then blocked with 5% non-fat dried milk for 60 minutes. The membrane was then incubated with LC3 primary antibodies (1:1000) in TBST overnight at 4° C. After that, the membrane was further incubated with HRP-conjugated secondary antibodies for 60 minutes. Finally, protein bands were visualized by using the ECL Western Blotting Detection Reagents (Invitrogen, Paisley, Scotland, UK)."}, "[7]": {"conditions": "MEFs, 24 h, annexin V/PI flow cytometry (FIGS. 6a to 6c)"}}, "note": "Where two headings read alike, the source gives them in different places.", "data": [{"compound": "thalidezine", "values": [{"measurement": "formation of GFP-LC3 puncta", "setting": "[1]", "value": "increased"}, {"measurement": "GFP-LC3 puncta formation", "setting": "HeLa cancer cells", "value": "significantly induced"}, {"measurement": "cytotoxic effect to autophagy deficient cells (Atg7−/−) versus Atg7 wild-type", "setting": "[2]", "value": "less cytotoxicity"}, {"measurement": "compound-induced GFP-LC3 puncta formation in the presence of autophagic inhibitor (3-MA)", "setting": "[3]", "value": "significant reduction"}, {"measurement": "clearance of overexpressed EGFP-tagged mutant huntingtin (HDQ55, HDQ74)", "setting": "[4]", "value": "enhanced"}, {"measurement": "formed mutant huntingtin aggregate (HDQ55)", "setting": "[5]", "value": "significantly reduced"}, {"measurement": "GFP-LC3 puncta formation in Atg7-knockout cells", "setting": "[6]", "value": "not"}, {"measurement": "downstream p70S6K phosphorylation", "setting": "p70S6K", "value": "concomitant reduction"}, {"measurement": "conversion of the autophagic marker LC3-II", "setting": "LC3-II", "value": "induced"}]}, {"compound": "COc1cc2c(cc1OC)[C@@H](Cc1ccc(O)c(Oc3cc4c(cc3OC)CCN(C)[C@@H]4Cc3ccc(O)cc3)c1)N(C)CC2", "note": "[liensinine]", "values": [{"measurement": "formation of GFP-LC3 puncta", "setting": "[1]", "value": "increased"}, {"measurement": "GFP-LC3 puncta formation", "setting": "HeLa cancer cells", "value": "significantly induced"}, {"measurement": "cytotoxic effect to autophagy deficient cells (Atg7−/−) versus Atg7 wild-type", "setting": "[2]; [7]", "value": "less cytotoxicity"}, {"measurement": "compound-induced GFP-LC3 puncta formation in the presence of autophagic inhibitor (3-MA)", "setting": "[3]", "value": "significant reduction"}, {"measurement": "clearance of overexpressed EGFP-tagged mutant huntingtin (HDQ55, HDQ74)", "setting": "[4]", "value": "enhanced"}, {"measurement": "formed mutant huntingtin aggregate (HDQ55)", "setting": "[5]", "value": "significantly reduced"}, {"measurement": "GFP-LC3 puncta formation in Atg7-knockout cells", "setting": "[6]", "value": "not"}, {"measurement": "downstream p70S6K phosphorylation", "setting": "p70S6K", "value": "concomitant reduction"}, {"measurement": "conversion of the autophagic marker LC3-II", "setting": "LC3-II", "value": "induced"}]}, {"compound": "COc1ccc2cc1Oc1ccc(cc1)C[C@H]1c3cc(c(OC)cc3CCN1C)Oc1c(OC)c(OC)c(OC)c3c1[C@H](C2)N(C)CC3", "note": "[hernandezine]", "values": [{"measurement": "formation of GFP-LC3 puncta", "setting": "[1]", "value": "increased"}, {"measurement": "GFP-LC3 puncta formation", "setting": "HeLa cancer cells", "value": "significantly induced"}, {"measurement": "compound-induced GFP-LC3 puncta formation in the presence of autophagic inhibitor (3-MA)", "setting": "[3]", "value": "significant reduction"}, {"measurement": "clearance of overexpressed EGFP-tagged mutant huntingtin (HDQ55, HDQ74)", "setting": "[4]", "value": "enhanced"}, {"measurement": "formed mutant huntingtin aggregate (HDQ55)", "setting": "[5]", "value": "significantly reduced"}, {"measurement": "GFP-LC3 puncta formation in Atg7-knockout cells", "setting": "[6]", "value": "not"}, {"measurement": "downstream p70S6K phosphorylation", "setting": "p70S6K", "value": "concomitant reduction"}, {"measurement": "conversion of the autophagic marker LC3-II", "setting": "LC3-II", "value": "induced"}]}, {"compound": "COc1ccc(C[C@@H]2c3cc(Oc4cc(C[C@@H]5c6cc(O)c(OC)cc6CCN5C)ccc4O)c(OC)cc3CCN2C)cc1", "note": "[isoliensinine]", "values": [{"measurement": "formation of GFP-LC3 puncta", "setting": "[1]", "value": "increased"}, {"measurement": "GFP-LC3 puncta formation", "setting": "HeLa cancer cells", "value": "significantly induced"}, {"measurement": "cytotoxic effect to autophagy deficient cells (Atg7−/−) versus Atg7 wild-type", "setting": "[2]; [7]", "value": "less cytotoxicity"}, {"measurement": "compound-induced GFP-LC3 puncta formation in the presence of autophagic inhibitor (3-MA)", "setting": "[3]", "value": "significant reduction"}, {"measurement": "clearance of overexpressed EGFP-tagged mutant huntingtin (HDQ55, HDQ74)", "setting": "[4]", "value": "enhanced"}, {"measurement": "formed mutant huntingtin aggregate (HDQ55)", "setting": "[5]", "value": "significantly reduced"}, {"measurement": "GFP-LC3 puncta formation in Atg7-knockout cells", "setting": "[6]", "value": "not"}, {"measurement": "downstream p70S6K phosphorylation", "setting": "p70S6K", "value": "concomitant reduction"}, {"measurement": "conversion of the autophagic marker LC3-II", "setting": "LC3-II", "value": "induced"}]}, {"compound": "COc1cc2c(cc1OC)[C@@H](Cc1ccc(Oc3cc(C[C@@H]4c5cc(OC)c(OC)cc5CCN4C)ccc3O)cc1)N(C)CC2", "note": "[dauricine]", "values": [{"measurement": "formation of GFP-LC3 puncta", "setting": "[1]", "value": "increased"}, {"measurement": "GFP-LC3 puncta formation", "setting": "HeLa cancer cells", "value": "significantly induced"}, {"measurement": "cytotoxic effect to autophagy deficient cells (Atg7−/−) versus Atg7 wild-type", "setting": "[2]; [7]", "value": "less cytotoxicity"}, {"measurement": "compound-induced GFP-LC3 puncta formation in the presence of autophagic inhibitor (3-MA)", "setting": "[3]", "value": "significant reduction"}, {"measurement": "clearance of overexpressed EGFP-tagged mutant huntingtin (HDQ55, HDQ74)", "setting": "[4]", "value": "enhanced"}, {"measurement": "formed mutant huntingtin aggregate (HDQ55)", "setting": "[5]", "value": "significantly reduced"}, {"measurement": "GFP-LC3 puncta formation in Atg7-knockout cells", "setting": "[6]", "value": "not"}, {"measurement": "downstream p70S6K phosphorylation", "setting": "p70S6K", "value": "concomitant reduction"}, {"measurement": "conversion of the autophagic marker LC3-II", "setting": "LC3-II", "value": "induced"}]}]}
